Values joined by “and” are separate entries in the source; they are usually repeats but may differ in a detail not shown here. Equal values may be shown once. Where a name gives a salt, the structure may show the parent alone.
Tested on: Ascaris suum antigen-induced wheal
Test: Ascaris suum antigen-induced intradermal wheal formation in nonhuman primates
Assay type: in vivo, Macaca fascicularis
Conditions: for Mean wheal area: mean of 12 animals, 15 minutes, A suum alone 119.626; for Individual calculated wheal area: single animals, intradermal, 15 minutes after injection
Source text: The species used for this study were male, nonhuman primates, Macaca fascicularis 5 to 10 years of age. Each animal was identified by a unique number tattoo located on its chest. The group size was 12. Animals were supplied by Charles River and housed under conditions outlined in the NIH Guide for Care and Use of Laboratory Animals in compliance with the USDA Laboratory Animal Welfare Act, in a fully accredited AAALAC facility. Purina (product 5038) primate chow was fed twice daily, supplemented with fruit, vegetables and treats. Water was available ad libitum.
Compound A formulated in a solution containing 0.22 mg/ml A sum (Ascaris sum) in phosphate buffered saline was dosed at 0.004, 0.0004, 0.00004, and 0.000004 mg per injection site at a volume of 40 μl.
Diphenhydramine hydrochloride was formulated in a solution containing 0.22 mg/ml A suum in phosphate buffered saline. Diphenhydramine hydrochloride was dosed at 0.4 mg per injection site at a volume of 40 μl.
Ascaris suum extract (part number XPB33X1A5, lot 30575) was supplied by Greer Laboratories. The extract was reconstituted with distilled water to a final concentration of 10 mg/ml of stock solution.
Animals were anesthetized by an intramuscular (IM) injection of 5 to 10 mg/kg ketamine mixed with 0.5 to 0.75 mg/kg medetomidine. The animal's chest and abdomen were shaved and wiped clean with alcohol. The following injections (40 μl each) were given intradermally: • PBS (phosphate buffered saline) • Ascaris 8.8×10^−3 mg/ml • Ascaris 8.8×10^−3 mg/ml+0.4 mg Diphenhydramine hydrochloride • Ascaris 8.8×10^−3 mg/ml+0.004 mg SAR160719 • Ascaris 8.8×10^−3 mg/ml+0.0004 mg SAR160719 • Ascaris 8.8×10^−3 mg/ml+0.00004 mg SAR160719 • Ascaris 8.8×10^−3 mg/ml+0.000004 mg SAR160719
The reactions in the form of a wheal were measured 15 minutes after injection using vernier calipers. The wheal was measured along two diameters (D1 and D2) perpendicular to one another. The area of the wheal was calculated using the formula: […]
Mixed model with repeated measures was used to analyze the data, with wheal size for different treatment groups as the repeated measures, treatment as fixed effects, and animal as random effect. The correlation structure was selected to be compound symmetry. Robust covariance estimate was used to obtain the results.

| Structure (SMILES) | Antigen-induced wheal formation (co-injected with A suum intradermally, measured 15 minutes after injection) | Mean wheal area (A suum + 0.000004 mg per site) [mm^2] | Mean wheal area (A suum + 0.00004 mg per site) [mm^2] | Mean wheal area (A suum + 0.0004 mg per site) | Mean wheal area (A suum + 0.004 mg per site) | Individual calculated wheal area (A suum 8.8 × 10^−3 mg + 0.000004 mg per injection site) | Individual calculated wheal area (A suum 8.8 × 10^−3 mg + 0.00004 mg per injection site) | Individual calculated wheal area (A suum 8.8 × 10^−3 mg + 0.0004 mg per injection site) | Individual calculated wheal area (A suum 8.8 × 10^−3 mg + 0.004 mg per injection site) | Mean wheal area (A suum + 0.4 mg per site, hydrochloride) | Individual calculated wheal area (A suum 8.8 × 10^−3 mg + 0.4 mg per injection site, hydrochloride) |
| --- | --- | --- | --- | --- | --- | --- | --- | --- | --- | --- | --- |
| COCCn1cc(C(=O)N2CCC(c3cc(CN)ccc3F)CC2)c2c(OC(F)(F)F)ccc(F)c21 [Compound A, [4-(5-Aminomethyl-2-fluorophenyl)piperidine-1-yl][7-fluoro-1-(2-methoxyethyl)-4-trifluoromethoxy-1H-indol-3-yl]methanone] | reduced antigen-induced wheal formation | 105.510 | 101.157 | 97.680±8.012 mm^2 and 97.680 mm^2 | 102.390±9.645 mm^2 and 102.390 mm^2 | 110.302 mm^2 and 84.145 mm^2 and 132.750 mm^2 and 121.754 mm^2 and 86.601 mm^2 and 104.788 mm^2 and 134.800 mm^2 and 133.773 mm^2 and 85.779 mm^2 and 66.485 mm^2 and 115.005 mm^2 and 89.932 mm^2 | 67.209 mm^2 and 86.601 mm^2 and 168.586 mm^2 and 90.774 mm^2 (2×) and 106.610 mm^2 (2×) and 81.723 mm^2 and 107.527 mm^2 and 93.325 mm^2 and 79.337 mm^2 and 134.800 mm^2 | 112.171 mm^2 and 110.302 mm^2 and 158.388 mm^2 and 101.190 mm^2 and 103.882 mm^2 and 107.527 mm^2 and 87.428 mm^2 and 90.774 mm^2 and 100.300 mm^2 and 48.404 mm^2 and 56.752 mm^2 and 95.046 mm^2 | 67.938 mm^2 and 115.005 mm^2 and 159.506 mm^2 and 91.621 mm^2 and 84.960 mm^2 (2×) and 131.730 mm^2 and 88.259 mm^2 and 164.014 mm^2 and 99.415 mm^2 and 65.047 mm^2 and 76.211 mm^2 | – | – |
| CN(C)CCOC(c1ccccc1)c1ccccc1 [Diphenhydramine hydrochloride, reference compound] | – | – | – | – | – | – | – | – | – | 84.196±7.364 mm^2 and 84.196 mm^2 | 76.211 mm^2 and 116.914 mm^2 and 147.430 mm^2 and 62.219 mm^2 and 73.148 mm^2 and 82.527 mm^2 and 58.773 mm^2 and 67.209 mm^2 and 78.550 mm^2 and 65.764 mm^2 and 87.428 mm^2 and 94.183 mm^2 |

Source: US20120309790A1, “TREATMENT OF DERM[…] CONDITIONS” (SANOFI, priority 2010, published 2012)
